Values of other authors in patent publication US20020156056A1, “Oral fast-dissolving compositions for dopamine agonists” (priority 1997, published 2002).

Columns and labels:
[1] = in vivo

Compound	Adverse effects of intranasal administration (intranasal)	Adverse findings in long-term studies of oral tablets (oral tablets, studies stopped after 7-10 days)	Adverse effects of sub-lingual tablets (sub-lingual tablets, prolonged use)	Share of the drug converted to dopamine in peripheral tissues [1]	Share of the drug that enters the brain [1]
CN1CCc2cccc3c2C1Cc1ccc(O)c(O)c1-3 (centres unmarked) [apomorphine, 5,6,6a,7-tetrahydro-6-methyl-4H-dibenzo[de,g]quinoline-10,11-diol]	transient nasal blockage, burning sensation and swollen nose and lips	unexplained rises in blood urea nitrogen	severe stomatitis on prolonged use with buccal mucosal ulceration in half the patients treated	–	–
N[C@@H](Cc1ccc(O)c(O)c1)C(=O)O [levodopa]	–	–	–	about 95%	less than 1%
